Two molecules from US20070249705A1, “N-(1-(2,3-Dihydro-1H-Inden-5Yl)-2-Oxo-3-Pyrrolidinyl)-Sulfonamide Derivatives for Use as Factor Xa Inhibitors” (priority 2004, published 2007) can be followed below.

The experiment has as its target human Factor Xa (Homo sapiens, UniProt P00742). Description: In vitro fluorogenic assay for inhibition of Factor Xa. Format: biochemical. The settings on record: Ki = IC50/1.6. The protocol:
In Vitro Assay for Inhibition of Factor Xa
Compounds of the present invention were tested for their Factor Xa inhibitory activity as determined in vitro by their ability to inhibit human Factor Xa in a fluorogenic assay, using Rhodamine 110, bis-CBZ-glycylglycyl-L-arginine amide as the fluorogenic substrate. Compounds were diluted from a 10 mM stock solution in dimethylsulfoxide at appropriate concentrations. Assay was performed at room temperature using buffer consisting of: 50 mM Tris-HCl, 150 mM NaCl, 5 mM CaCl2, pH 7.4 containing human Factor Xa (final concentration of 0.0003 U.ml-1). Compound and enzyme were preincubated for 15 min prior to addition of the substrate (final concentration of 10 μM). The reaction was stopped after 3 hrs with the addition of H-D-Phe-Pro-Arg-Chloromethylketone. An LJL-Analyst fluorimeter was used to monitor fluorescence with 485 nm excitation/535 nm emission. To obtain IC50 values the data were analysed using ActivityBase® and XLfit®.
Calculation of Ki values:
Ki=IC50/(1+[Substrate]/Km)
The Ki value for the above assay can be obtained by dividing the IC50 value by 1.6.

Sequence of human Factor Xa (P00742 235-488 limits assumed): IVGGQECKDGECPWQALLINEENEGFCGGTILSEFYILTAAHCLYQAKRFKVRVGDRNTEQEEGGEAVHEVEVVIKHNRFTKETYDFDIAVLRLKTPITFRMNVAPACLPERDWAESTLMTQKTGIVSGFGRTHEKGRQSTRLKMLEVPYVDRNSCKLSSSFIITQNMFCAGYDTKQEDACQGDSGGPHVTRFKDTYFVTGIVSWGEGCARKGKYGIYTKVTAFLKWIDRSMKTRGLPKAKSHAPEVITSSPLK
Sequence of human Factor Xa (P00742 41-179 partner limits assumed): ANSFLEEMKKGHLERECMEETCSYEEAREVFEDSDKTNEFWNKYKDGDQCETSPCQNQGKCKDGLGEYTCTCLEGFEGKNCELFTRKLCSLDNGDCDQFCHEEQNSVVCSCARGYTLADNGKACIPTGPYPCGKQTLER

One may read the Ki as the dissociation constant of the complex between target and ligand, obtained from inhibition or displacement. For the molecule `CN(C)C1CCc2cc(N3CCC(NS(=O)(=O)c4cc5ccc(Cl)cc5s4)C3=O)ccc21` (centres unmarked) [Example 3, 6-Chloro-N-{1-[1-(dimethylamino)-2,3-dihydro-1H-inden-5-yl]-2-oxo-3-pyrrolidinyl}-1-benzothiophene-2-sulfonamide], the Ki is less than 50 nM. `CNC1CCc2cc(N3CC[C@H](N(C)S(=O)(=O)c4ccc5cc(Cl)ccc5c4)C3=O)ccc21` (stereo partly drawn) [Example 12, 6-Chloro-N-methyl-N-{(3S)-1-[1-(methylamino)-2,3-dihydro-1H-inden-5-yl]-2-oxo-3-pyrrolidinyl}-2-naphthalenesulfonamide] came in with a Ki of less than 50 nM.
